Results published in patent US10052320B2, “Substituted quinoxalines as FGFR kinase inhibitors” (ASTEX THERAPEUTICS LIMITED, priority 2011, dated 2018).

Assays:
[1] = target: T1, Ba/F3-Flt3-transfected cells (Homo sapiens, UniProt P36888, cells depend on it, form not given); assay: Ba/F3-Flt3 (minus IL3) cellular proliferation assay, Alamar Blue; format: cell-based; conditions: minus IL3
T1 sequence (P36888 1-993): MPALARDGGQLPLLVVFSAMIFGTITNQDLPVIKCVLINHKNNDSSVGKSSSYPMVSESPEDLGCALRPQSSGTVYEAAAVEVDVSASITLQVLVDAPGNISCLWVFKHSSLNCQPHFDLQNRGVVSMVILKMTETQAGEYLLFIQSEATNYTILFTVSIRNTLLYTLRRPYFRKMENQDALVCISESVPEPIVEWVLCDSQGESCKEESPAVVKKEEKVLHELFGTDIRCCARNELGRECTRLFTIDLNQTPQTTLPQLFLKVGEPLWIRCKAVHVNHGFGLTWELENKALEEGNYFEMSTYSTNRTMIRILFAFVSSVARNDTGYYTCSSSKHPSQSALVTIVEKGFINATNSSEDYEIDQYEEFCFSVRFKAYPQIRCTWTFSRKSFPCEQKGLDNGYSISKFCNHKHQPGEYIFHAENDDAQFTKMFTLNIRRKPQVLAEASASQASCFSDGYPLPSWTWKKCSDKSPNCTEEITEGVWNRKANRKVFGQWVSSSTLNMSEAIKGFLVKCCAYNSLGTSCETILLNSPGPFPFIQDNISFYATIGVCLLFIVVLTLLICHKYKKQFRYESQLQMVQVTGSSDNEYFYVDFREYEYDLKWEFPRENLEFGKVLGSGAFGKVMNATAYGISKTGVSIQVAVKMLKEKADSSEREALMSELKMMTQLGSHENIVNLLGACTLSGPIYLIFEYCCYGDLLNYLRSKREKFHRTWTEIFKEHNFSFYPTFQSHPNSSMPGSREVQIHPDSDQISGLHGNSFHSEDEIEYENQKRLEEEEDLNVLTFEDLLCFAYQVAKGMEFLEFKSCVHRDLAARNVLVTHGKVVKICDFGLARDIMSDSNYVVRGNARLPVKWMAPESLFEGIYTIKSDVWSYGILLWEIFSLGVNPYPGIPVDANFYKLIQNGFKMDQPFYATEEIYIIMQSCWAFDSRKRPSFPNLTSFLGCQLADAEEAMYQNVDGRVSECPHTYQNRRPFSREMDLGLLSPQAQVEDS

[2] = target: Ba/F3-FGFR3-transfected cells (Homo sapiens, UniProt P22607); assay: Ba/F3-FGFR3 (minus IL3) cellular proliferation assay, Alamar Blue; format: cell-based; conditions: for BAF3-FGFR 3 (MIN IL3) 384 well pIC50: minus IL3, 384 well; for BAF3-FGFR 3 (MIN IL3) 96 well pIC50: minus IL3, 96 well
Chain of Ba/F3-FGFR3-transfected cells (P22607 whole entry, change not shown): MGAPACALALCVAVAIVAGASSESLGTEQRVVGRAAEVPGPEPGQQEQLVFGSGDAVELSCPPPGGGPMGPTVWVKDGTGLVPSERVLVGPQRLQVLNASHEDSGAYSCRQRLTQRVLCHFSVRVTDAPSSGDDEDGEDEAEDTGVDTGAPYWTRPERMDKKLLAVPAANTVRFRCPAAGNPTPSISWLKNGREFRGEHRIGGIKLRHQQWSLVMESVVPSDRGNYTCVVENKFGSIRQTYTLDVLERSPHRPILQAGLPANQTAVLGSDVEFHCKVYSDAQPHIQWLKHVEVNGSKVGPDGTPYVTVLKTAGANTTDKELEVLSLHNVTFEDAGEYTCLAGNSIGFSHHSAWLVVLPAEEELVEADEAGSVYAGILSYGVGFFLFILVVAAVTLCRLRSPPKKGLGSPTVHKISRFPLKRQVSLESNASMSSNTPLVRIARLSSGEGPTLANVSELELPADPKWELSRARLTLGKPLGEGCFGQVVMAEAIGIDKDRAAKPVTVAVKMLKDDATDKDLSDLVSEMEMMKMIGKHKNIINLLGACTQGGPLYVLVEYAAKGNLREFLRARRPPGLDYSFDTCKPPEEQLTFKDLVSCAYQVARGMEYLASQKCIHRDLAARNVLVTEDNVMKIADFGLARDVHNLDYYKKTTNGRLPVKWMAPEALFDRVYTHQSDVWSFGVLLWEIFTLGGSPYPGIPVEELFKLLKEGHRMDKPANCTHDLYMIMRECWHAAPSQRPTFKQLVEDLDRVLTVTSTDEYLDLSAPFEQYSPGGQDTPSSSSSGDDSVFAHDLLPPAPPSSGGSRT
Procedure, shortened: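 Ba/F3 cells transfected with FGFR3 were exposed to compound in RPMI-1640 with 10% FBS for 24 h at 37 °C, 5% CO2. Alamar Blue (resazurin) was then added for 4 h, and fluorescence was read at ex 540/em 590 nm.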

[3] = target: Ba/F3-KDR-transfected cells (Homo sapiens, UniProt P35968); assay: Ba/F3-KDR (minus IL3) cellular proliferation assay, Alamar Blue; format: cell-based; conditions: minus IL3
Chain of Ba/F3-KDR-transfected cells (P35968 whole entry, change not shown): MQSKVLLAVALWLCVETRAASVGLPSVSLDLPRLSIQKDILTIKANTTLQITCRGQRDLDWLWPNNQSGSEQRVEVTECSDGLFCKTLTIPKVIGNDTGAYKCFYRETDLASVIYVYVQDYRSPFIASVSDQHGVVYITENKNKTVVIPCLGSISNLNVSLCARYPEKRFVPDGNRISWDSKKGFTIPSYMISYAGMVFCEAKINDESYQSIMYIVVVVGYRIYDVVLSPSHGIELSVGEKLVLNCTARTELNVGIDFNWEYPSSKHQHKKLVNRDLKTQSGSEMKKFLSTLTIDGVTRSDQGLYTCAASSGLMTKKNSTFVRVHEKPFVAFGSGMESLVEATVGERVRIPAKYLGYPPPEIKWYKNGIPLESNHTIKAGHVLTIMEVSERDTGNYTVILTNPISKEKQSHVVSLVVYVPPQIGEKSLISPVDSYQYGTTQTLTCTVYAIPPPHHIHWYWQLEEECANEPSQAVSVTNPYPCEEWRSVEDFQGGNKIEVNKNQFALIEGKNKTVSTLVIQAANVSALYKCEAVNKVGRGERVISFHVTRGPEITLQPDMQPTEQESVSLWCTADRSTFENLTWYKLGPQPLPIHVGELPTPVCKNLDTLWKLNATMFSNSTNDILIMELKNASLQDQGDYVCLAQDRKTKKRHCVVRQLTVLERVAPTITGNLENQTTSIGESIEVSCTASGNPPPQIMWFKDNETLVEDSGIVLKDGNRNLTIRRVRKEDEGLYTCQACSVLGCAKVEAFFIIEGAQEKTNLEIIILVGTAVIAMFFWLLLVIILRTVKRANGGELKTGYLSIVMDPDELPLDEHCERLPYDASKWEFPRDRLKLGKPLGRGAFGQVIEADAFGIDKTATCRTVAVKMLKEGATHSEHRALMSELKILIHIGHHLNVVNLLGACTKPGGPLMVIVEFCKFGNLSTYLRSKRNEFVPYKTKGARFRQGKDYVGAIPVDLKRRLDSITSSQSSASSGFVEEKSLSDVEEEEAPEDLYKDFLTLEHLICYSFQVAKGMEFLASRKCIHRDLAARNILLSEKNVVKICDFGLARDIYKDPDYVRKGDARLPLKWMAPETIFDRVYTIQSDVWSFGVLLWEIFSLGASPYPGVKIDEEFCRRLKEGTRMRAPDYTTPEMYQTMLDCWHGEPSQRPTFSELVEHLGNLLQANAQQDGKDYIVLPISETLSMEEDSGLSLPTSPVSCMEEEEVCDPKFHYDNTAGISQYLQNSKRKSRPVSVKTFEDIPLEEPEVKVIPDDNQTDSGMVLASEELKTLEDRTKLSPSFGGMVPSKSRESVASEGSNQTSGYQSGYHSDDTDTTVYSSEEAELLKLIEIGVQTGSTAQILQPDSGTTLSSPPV
Procedure, shortened: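 Ba/F3-KDR cells in phenol red free RPMI-1640 with 10% FBS were exposed to compound for 24 h at 37 °C, 5% CO2. Alamar Blue (resazurin) was then added for 4 h and fluorescence read at ex 540/em 590 nm. The counterscreen ran identically with 10 ng/ml murine IL3.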

SMILES: COc1cc(OC)cc(N(CCCO)c2ccc3ncc(-c4ccnc(C(=O)NCCCCN)c4)nc3c2)c1 [Compound 126]
- melting point: 130 °C
- BAF3-FLT3 (MIN IL3) 384 well pIC50 [1]: <5
- BAF3-FGFR 3 (MIN IL3) 384 well pIC50 [2]: 5.51
- BAF3-KDR (MIN IL3) 384 well pIC50 [3]: <5

SMILES: CNC(=O)c1cc(-c2cnc3ccc(N(CCN4CCCC4CO)c4cc(OC)cc(OC)c4)cc3n2)ccn1 (centres unmarked) [Compound 109]
- melting point: 172 °C
- BAF3-FLT3 (MIN IL3) 384 well pIC50 [1]: <5
- BAF3-FGFR 3 (MIN IL3) 384 well pIC50 [2]: ~6.77

SMILES: CNCCN(c1cc(OC)cc(OC)c1)c1ccc2ncc(-c3ccc(NC(=O)OC(C)(C)C)nc3)nc2c1 [Compound 81]
- melting point: 182 °C
- BAF3-FLT3 (MIN IL3) 384 well pIC50 [1]: 5.76
- BAF3-FGFR 3 (MIN IL3) 384 well pIC50 [2]: 5.91
- BAF3-KDR (MIN IL3) 384 well pIC50 [3]: 5.62

SMILES: COc1cc(OC)cc(N(CC2CC2)c2ccc3ncc(-c4nnn[nH]4)nc3c2)c1 [Compound 41]
- melting point: 216 °C
- BAF3-FLT3 (MIN IL3) 96 well pIC50 [1]: <5
- BAF3-FLT3 (MIN IL3) 384 well pIC50 [1]: <5
- BAF3-FGFR 3 (MIN IL3) 96 well pIC50 [2]: <5
- BAF3-FGFR 3 (MIN IL3) 384 well pIC50 [2]: <5
- BAF3-KDR (MIN IL3) 384 well pIC50 [3]: <5

SMILES: COc1cc(OC)cc(N(CC2CC2)c2ccc3ncc(-c4ccn(CCO)c4)nc3c2)c1 [Compound 56]
- melting point: 143 °C
- BAF3-FLT3 (MIN IL3) 96 well pIC50 [1]: <5
- BAF3-FLT3 (MIN IL3) 384 well pIC50 [1]: <5
- BAF3-KDR (MIN IL3) 96 well pIC50 [3]: 5.29
- BAF3-KDR (MIN IL3) 384 well pIC50 [3]: ~5

SMILES: COc1cc(OC)cc(N(CC2CC2)c2ccc3ncc(C(=O)NCCN4CCOCC4)nc3c2)c1 [Compound 96]
- melting point: 112 °C
- BAF3-FLT3 (MIN IL3) 96 well pIC50 [1]: <5
- BAF3-FLT3 (MIN IL3) 384 well pIC50 [1]: <5
- BAF3-FGFR 3 (MIN IL3) 96 well pIC50 [2]: 5.18
- BAF3-FGFR 3 (MIN IL3) 384 well pIC50 [2]: <5
- BAF3-KDR (MIN IL3) 384 well pIC50 [3]: <5

SMILES: COc1cc(OC)cc(N(CC2CC2)c2ccc3ncc(-c4ccn(C)c4)nc3c2)c1 [Compound 73]
- melting point: 110 °C
- BAF3-FLT3 (MIN IL3) 96 well pIC50 [1]: 5.31
- BAF3-FLT3 (MIN IL3) 384 well pIC50 [1]: 5.03
- BAF3-KDR (MIN IL3) 96 well pIC50 [3]: <5
- BAF3-KDR (MIN IL3) 384 well pIC50 [3]: 5.07

SMILES: COc1cc(OC)cc(N(CC2CC2)c2ccc3ncc(Nc4nccs4)nc3c2)c1 [Compound 98]
- melting point: 213 °C
- BAF3-FLT3 (MIN IL3) 96 well pIC50 [1]: <5
- BAF3-FLT3 (MIN IL3) 384 well pIC50 [1]: <5
- BAF3-FGFR 3 (MIN IL3) 96 well pIC50 [2]: <5
- BAF3-FGFR 3 (MIN IL3) 384 well pIC50 [2]: <5
- BAF3-KDR (MIN IL3) 384 well pIC50 [3]: <5

SMILES: COc1cc(OC)cc(N(CC2CC2)c2ccc3ncc(-n4cncn4)nc3c2)c1 [Compound 50]
- melting point: 168 °C
- BAF3-FLT3 (MIN IL3) 96 well pIC50 [1]: <5
- BAF3-FLT3 (MIN IL3) 384 well pIC50 [1]: <5
- BAF3-FGFR 3 (MIN IL3) 96 well pIC50 [2]: <5
- BAF3-FGFR 3 (MIN IL3) 384 well pIC50 [2]: <5
- BAF3-KDR (MIN IL3) 96 well pIC50 [3]: <5
- BAF3-KDR (MIN IL3) 384 well pIC50 [3]: <5

SMILES: COc1cc(OC)cc(N(CCCO)c2ccc3ncc(-c4ccc(N(C)C(=O)OC(C)(C)C)nc4)nc3c2)c1 [Compound 125]
- melting point: 143 °C
- BAF3-FLT3 (MIN IL3) 384 well pIC50 [1]: <5
- BAF3-FGFR 3 (MIN IL3) 384 well pIC50 [2]: ~6.04
- BAF3-KDR (MIN IL3) 384 well pIC50 [3]: <5

SMILES: COc1cc(OC)cc(N(CCCO)c2ccc3ncc(-c4ccnc(N)c4)nc3c2)c1 [Compound 66]
- melting point: 137 °C
- BAF3-FGFR 3 (MIN IL3) 384 well pIC50 [2]: ~7.05
- BAF3-KDR (MIN IL3) 384 well pIC50 [3]: 5.52

SMILES: COc1cc(OC)cc(N(CC(O)C(F)(F)F)c2ccc3ncc(-c4cccnc4)nc3c2)c1 (single isomer, unassigned) [Compound 53]
- melting point: 211 °C
- BAF3-FLT3 (MIN IL3) 384 well pIC50 [1]: <5
- BAF3-KDR (MIN IL3) 384 well pIC50 [3]: <5

SMILES: COc1cc(OC)cc(N(CC2CC2)c2ccc3ncc(Nc4cnn(C)c4)nc3c2)c1 [Compound 61]
- melting point: 160 °C
- BAF3-FLT3 (MIN IL3) 96 well pIC50 [1]: 5.25
- BAF3-FLT3 (MIN IL3) 384 well pIC50 [1]: <5
- BAF3-KDR (MIN IL3) 384 well pIC50 [3]: <5

SMILES: COc1cc(OC)cc(N(CCCO)c2ccc3ncc(-c4ccc(C)nc4)nc3c2)c1 [Compound 115]
- melting point: 166 °C
- BAF3-FGFR 3 (MIN IL3) 384 well pIC50 [2]: 6.29
- BAF3-KDR (MIN IL3) 384 well pIC50 [3]: 5.06

SMILES: COc1cc(OC)cc(N(CC(OC(C)=O)C(F)(F)F)c2ccc3ncc(-c4cccnc4)nc3c2)c1 (single isomer, unassigned) [Compound 75]
- melting point: 180 °C
- BAF3-FLT3 (MIN IL3) 384 well pIC50 [1]: <5
- BAF3-KDR (MIN IL3) 384 well pIC50 [3]: <5

SMILES: COc1cc(OC)cc(N(CC2CC2)c2ccc3ncc(-c4cn(C)nn4)nc3c2)c1 [Compound 71]
- melting point: 141 °C
- BAF3-FLT3 (MIN IL3) 96 well pIC50 [1]: <5
- BAF3-FLT3 (MIN IL3) 384 well pIC50 [1]: <5
- BAF3-KDR (MIN IL3) 96 well pIC50 [3]: <5
- BAF3-KDR (MIN IL3) 384 well pIC50 [3]: <5

SMILES: COc1cc(OC)cc(N(CC2CC2)c2ccc3ncc(-n4ccnc4C)nc3c2)c1 [Compound 32]
- BAF3-FLT3 (MIN IL3) 96 well pIC50 [1]: <5
- BAF3-FLT3 (MIN IL3) 384 well pIC50 [1]: <5
- BAF3-FGFR 3 (MIN IL3) 96 well pIC50 [2]: <5
- BAF3-FGFR 3 (MIN IL3) 384 well pIC50 [2]: <5
- BAF3-KDR (MIN IL3) 384 well pIC50 [3]: <5

SMILES: COc1cc(OC)cc(N(CC(O)C(F)(F)F)c2ccc3ncc(-c4cccnc4)nc3c2)c1 (single isomer, unassigned) [Compound 54]
- melting point: 210 °C
- BAF3-FLT3 (MIN IL3) 384 well pIC50 [1]: <5
- BAF3-KDR (MIN IL3) 384 well pIC50 [3]: <5

SMILES: COc1cc(OC)cc(N(CC2CC2)c2ccc3ncc(-c4ccnn4C)nc3c2)c1 [Compound 18]
- melting point: 132 °C
- BAF3-FLT3 (MIN IL3) 96 well pIC50 [1]: <5
- BAF3-FLT3 (MIN IL3) 384 well pIC50 [1]: <5
- BAF3-KDR (MIN IL3) 384 well pIC50 [3]: <5

SMILES: COc1cc(OC)cc(N(CC2CC2)c2ccc3ncc(-c4cnn(C)n4)nc3c2)c1 [Compound 70]
- melting point: 129 °C
- BAF3-FLT3 (MIN IL3) 96 well pIC50 [1]: <5
- BAF3-FLT3 (MIN IL3) 384 well pIC50 [1]: <5
- BAF3-KDR (MIN IL3) 96 well pIC50 [3]: <5
- BAF3-KDR (MIN IL3) 384 well pIC50 [3]: <5

SMILES: COc1cc(OC)cc(N(CC2CC2)c2ccc3ncc(-c4cnnn4C)nc3c2)c1 [Compound 72]
- melting point: 169 °C
- BAF3-FLT3 (MIN IL3) 96 well pIC50 [1]: <5
- BAF3-FLT3 (MIN IL3) 384 well pIC50 [1]: 5.09
- BAF3-FGFR 3 (MIN IL3) 96 well pIC50 [2]: <5
- BAF3-FGFR 3 (MIN IL3) 384 well pIC50 [2]: <5

SMILES: COc1cc(OC)cc(N(CCCO)c2ccc3ncc(-c4cccnc4)nc3c2)c1 [Compound 112]
- melting point: 150 °C
- BAF3-FGFR 3 (MIN IL3) 384 well pIC50 [2]: ~6.39
- BAF3-KDR (MIN IL3) 384 well pIC50 [3]: <5

SMILES: COc1cc(OC)cc(N(CCNC(C)C)c2ccc3ncc(-c4cccnc4)nc3c2)c1 [Compound 10]
- BAF3-FLT3 (MIN IL3) 384 well pIC50 [1]: ~5.01
- BAF3-FGFR 3 (MIN IL3) 384 well pIC50 [2]: 7.53
- BAF3-KDR (MIN IL3) 384 well pIC50 [3]: 5.56

SMILES: COc1cc(OC)cc(N(CC2CC2)c2ccc3ncc(-c4cn(C)cn4)nc3c2)c1 [Compound 21]
- melting point: 136 °C
- BAF3-FLT3 (MIN IL3) 96 well pIC50 [1]: <5
- BAF3-FLT3 (MIN IL3) 384 well pIC50 [1]: <5
- BAF3-KDR (MIN IL3) 96 well pIC50 [3]: <5
- BAF3-KDR (MIN IL3) 384 well pIC50 [3]: <5
